Results from patent publication US11878975B2, “Substituted indole compounds useful as TLR inhibitors” (BRISTOL-MYERS SQUIBB COMPANY, priority 2017, dated 2024).

What was measured:
Format in all cases: cell-based
human TLR7 = biological target: T1, human TLR7 (Homo sapiens, UniProt Q9NYK1); assay: TLR7 inhibition reporter assay (HEK-Blue cells, SEAP reporter, gardiquimod stimulation); conditions: HEK-Blue cells overexpressing human TLR7, SEAP reporter, gardiquimod 7.5 μM
T1 construct: host or cells: HEK-Blue cells
T1 sequence (Q9NYK1 27-1049): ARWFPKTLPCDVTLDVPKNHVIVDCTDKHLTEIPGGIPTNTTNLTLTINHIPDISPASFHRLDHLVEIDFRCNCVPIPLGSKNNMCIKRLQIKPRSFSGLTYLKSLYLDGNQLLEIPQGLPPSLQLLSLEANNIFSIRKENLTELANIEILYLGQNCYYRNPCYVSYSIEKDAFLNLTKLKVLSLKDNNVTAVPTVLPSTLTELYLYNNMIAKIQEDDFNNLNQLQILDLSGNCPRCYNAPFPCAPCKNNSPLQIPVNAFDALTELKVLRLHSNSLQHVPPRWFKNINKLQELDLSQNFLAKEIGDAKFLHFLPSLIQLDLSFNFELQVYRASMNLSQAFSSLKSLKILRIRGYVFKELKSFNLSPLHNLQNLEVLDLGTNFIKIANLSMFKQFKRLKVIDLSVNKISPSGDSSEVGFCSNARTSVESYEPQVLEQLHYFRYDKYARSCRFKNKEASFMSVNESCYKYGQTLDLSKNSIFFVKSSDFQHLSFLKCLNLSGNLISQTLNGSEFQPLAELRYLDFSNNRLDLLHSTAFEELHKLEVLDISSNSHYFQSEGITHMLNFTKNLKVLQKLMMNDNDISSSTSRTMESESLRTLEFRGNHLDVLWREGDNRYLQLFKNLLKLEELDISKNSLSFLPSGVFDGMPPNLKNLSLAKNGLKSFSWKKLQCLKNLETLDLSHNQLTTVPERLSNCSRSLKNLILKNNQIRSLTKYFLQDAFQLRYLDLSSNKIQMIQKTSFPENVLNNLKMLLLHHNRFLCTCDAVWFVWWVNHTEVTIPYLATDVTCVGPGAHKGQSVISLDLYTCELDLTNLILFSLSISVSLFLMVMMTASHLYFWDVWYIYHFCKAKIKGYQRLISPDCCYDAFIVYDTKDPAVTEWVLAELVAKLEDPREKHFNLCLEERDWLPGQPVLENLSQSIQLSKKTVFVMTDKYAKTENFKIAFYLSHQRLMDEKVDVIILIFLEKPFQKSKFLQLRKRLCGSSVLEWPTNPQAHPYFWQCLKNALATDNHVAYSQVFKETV
Summary of the method: (§1)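 HEK-Blue cells with NF-κB/AP-1-driven SEAP reporter, pre-treated 30 min at room temperature with compound (0.05 nM-50 μM). Stimulants: gardiquimod 7.5 μM (TLR7), R848 15.9 μM (TLR8) or ODN2006 5 nM (TLR9). SEAP measured after 22 h at 37° C.; percent inhibition versus agonist-plus-DMSO and known-inhibitor wells.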

human TLR9 = biological target: T2, human TLR9 (Homo sapiens, UniProt Q9NR96); assay: TLR9 inhibition reporter assay (HEK-Blue cells, SEAP reporter, ODN2006 stimulation); conditions: HEK-Blue cells overexpressing human TLR9, SEAP reporter, ODN2006 5 nM
T2 construct: host or cells: HEK-Blue cells
T2 sequence (Q9NR96 26-1032): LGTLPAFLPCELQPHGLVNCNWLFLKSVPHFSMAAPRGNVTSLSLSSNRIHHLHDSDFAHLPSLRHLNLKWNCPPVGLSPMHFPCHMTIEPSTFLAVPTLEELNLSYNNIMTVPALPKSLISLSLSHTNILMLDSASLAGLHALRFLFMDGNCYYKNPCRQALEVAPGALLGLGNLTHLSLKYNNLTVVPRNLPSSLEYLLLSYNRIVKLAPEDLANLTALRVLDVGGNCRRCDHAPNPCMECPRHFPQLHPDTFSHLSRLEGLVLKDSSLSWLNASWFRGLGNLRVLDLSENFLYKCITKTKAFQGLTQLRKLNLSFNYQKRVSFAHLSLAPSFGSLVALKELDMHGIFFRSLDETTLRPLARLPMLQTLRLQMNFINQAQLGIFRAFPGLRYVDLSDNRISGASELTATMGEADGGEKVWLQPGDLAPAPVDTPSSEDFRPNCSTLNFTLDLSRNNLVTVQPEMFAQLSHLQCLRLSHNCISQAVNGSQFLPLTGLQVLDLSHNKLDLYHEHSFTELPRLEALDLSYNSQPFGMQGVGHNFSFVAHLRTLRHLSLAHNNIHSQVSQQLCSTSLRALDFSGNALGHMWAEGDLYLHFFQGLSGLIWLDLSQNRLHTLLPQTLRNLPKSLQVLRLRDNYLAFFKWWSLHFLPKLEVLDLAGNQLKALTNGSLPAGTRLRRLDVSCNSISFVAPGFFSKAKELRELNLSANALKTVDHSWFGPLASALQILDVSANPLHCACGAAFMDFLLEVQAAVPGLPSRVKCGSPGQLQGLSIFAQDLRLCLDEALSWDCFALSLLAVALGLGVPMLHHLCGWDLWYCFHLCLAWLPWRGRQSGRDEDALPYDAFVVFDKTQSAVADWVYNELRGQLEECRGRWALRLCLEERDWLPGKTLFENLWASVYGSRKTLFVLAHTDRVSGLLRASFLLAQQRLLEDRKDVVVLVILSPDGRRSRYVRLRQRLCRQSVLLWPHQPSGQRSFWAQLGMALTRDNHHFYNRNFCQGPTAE
Summary of the method: as §1

human TLR8 = biological target: T3, human TLR8 (Homo sapiens, UniProt Q9NR97); assay: TLR8 inhibition reporter assay (HEK-Blue cells, SEAP reporter, R848 stimulation); conditions: HEK-Blue cells overexpressing human TLR8, SEAP reporter, R848 15.9 μM
T3 construct: host or cells: HEK-Blue cells
T3 sequence (Q9NR97 27-1041): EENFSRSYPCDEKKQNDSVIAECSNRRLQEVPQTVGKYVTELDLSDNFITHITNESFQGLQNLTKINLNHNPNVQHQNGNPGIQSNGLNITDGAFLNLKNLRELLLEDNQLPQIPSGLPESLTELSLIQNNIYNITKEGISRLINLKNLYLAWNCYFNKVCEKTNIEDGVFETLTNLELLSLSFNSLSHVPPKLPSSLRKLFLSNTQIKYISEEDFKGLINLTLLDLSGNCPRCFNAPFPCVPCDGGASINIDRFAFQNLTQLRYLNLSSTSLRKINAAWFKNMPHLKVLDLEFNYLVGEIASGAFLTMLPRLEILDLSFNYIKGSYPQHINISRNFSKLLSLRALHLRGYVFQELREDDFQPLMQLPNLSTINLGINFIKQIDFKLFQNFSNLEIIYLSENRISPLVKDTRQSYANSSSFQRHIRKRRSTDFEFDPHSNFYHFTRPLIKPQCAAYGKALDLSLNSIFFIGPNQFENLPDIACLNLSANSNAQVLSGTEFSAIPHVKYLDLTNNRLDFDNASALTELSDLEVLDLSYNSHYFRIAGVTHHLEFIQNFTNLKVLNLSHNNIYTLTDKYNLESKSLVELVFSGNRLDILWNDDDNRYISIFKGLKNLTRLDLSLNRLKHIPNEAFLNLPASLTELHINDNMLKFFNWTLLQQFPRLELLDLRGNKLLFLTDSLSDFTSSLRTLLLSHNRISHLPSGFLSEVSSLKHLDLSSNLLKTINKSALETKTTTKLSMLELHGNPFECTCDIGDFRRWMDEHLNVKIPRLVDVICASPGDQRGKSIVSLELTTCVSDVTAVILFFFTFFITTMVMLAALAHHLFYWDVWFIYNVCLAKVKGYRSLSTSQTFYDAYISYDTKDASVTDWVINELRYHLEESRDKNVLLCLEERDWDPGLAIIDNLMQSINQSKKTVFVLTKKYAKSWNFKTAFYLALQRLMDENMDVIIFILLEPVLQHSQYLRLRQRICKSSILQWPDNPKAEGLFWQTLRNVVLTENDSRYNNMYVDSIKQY
Summary of the method: as §1

Compound	IC50 (human TLR7) [nM]	IC50 (human TLR9) [nM]	IC50 (human TLR8) [nM]
CNC(=O)CN1CCOC(c2ccc3[nH]c(-c4cc(C)c5ncnn5c4)c(C(C)C)c3c2)C1 (stereo not drawn) [Example 317]	12	> 50000	90
Cc1cc(-c2[nH]c3ccc(C4CN(CC(N)=O)CCO4)cc3c2C(C)C)cn2ncnc12 (stereo not drawn) [Example 318]	6	> 50000	48
Cc1c(-c2[nH]c3ccc(C4CN(CC(N)=O)CCO4)cc3c2C(C)C)cn2ncnc2c1C (stereo not drawn) [Example 319]	14	> 50000	24
Cc1c(-c2[nH]c3ccc(C4CN(CC(N)=O)CCO4)cc3c2C(C)C)cn2ncnc2c1C (stereo not drawn) [Example 320]	16	> 50000	54
Cc1c(-c2[nH]c3ccc(C4CN(CC(=O)N(C)C)CCO4)cc3c2C(C)C)cn2ncnc2c1C (stereo not drawn) [Example 321]	15	> 50000	25
Cc1cc(-c2[nH]c3ccc(C4CN(CC(=O)N(C)C)CCO4)cc3c2C(C)C)cc(C)n1 (stereo not drawn) [Example 322]	69	20300	86
CNC(=O)CN1CCOC(c2ccc3[nH]c(-c4cc(C)nc(C)c4)c(C(C)C)c3c2)C1 (stereo not drawn) [Example 323]	35	> 50000	54
Cc1cc(-c2[nH]c3ccc(C4CN(CC(N)=O)CCO4)cc3c2C(C)C)cc(C)n1 (stereo not drawn) [Example 324]	44	45000	114
CNC(=O)CN1CCOC(c2ccc3[nH]c(-c4cc(C)nc(C)c4)c(C(C)C)c3c2)C1 (stereo not drawn) [Example 325]	29	36800	21
Cc1cc(-c2[nH]c3ccc(C4CN(CC(=O)N(C)C)CCO4)cc3c2C(C)C)cc(C)n1 (stereo not drawn) [Example 326]	75	19400	28
Cc1cc(-c2[nH]c3ccc(C4CN(CC(N)=O)CCO4)cc3c2C(C)C)cc(C)n1 (stereo not drawn) [Example 327]	54	> 50000	48
Cc1cc(-c2[nH]c3ccc(C4CN(C(=O)CN(C)C)CCO4)cc3c2C(C)C)cc(C)n1 (stereo not drawn) [Example 336]	10	530	10

Compounds with a lower IC50 (human TLR7), results first:

IC50 (human TLR7) [nM]	IC50 (human TLR9) [nM]	IC50 (human TLR8) [nM]	Compound
5	729	12	Cc1cc(-c2[nH]c3ccc(C4CN(C(=O)CN(C)C)CCO4)cc3c2C(C)C)cc(C)n1 (stereo not drawn) [Example 335]
3	1720	16	CNCC(=O)N1CCOC(c2ccc3[nH]c(-c4cc(OC)c5ncnn5c4)c(C(C)C)c3c2)C1 (stereo not drawn) [Example 342]
2	4830	5.1	CNCC(=O)N1CCOC(c2ccc3[nH]c(-c4cn5ncnc5c(C)c4C)c(C(C)C)c3c2)C1 (stereo not drawn) [Example 340]
2	5970	5	CNCC(=O)N1CCOC(c2ccc3[nH]c(-c4cn5ncnc5c(C)c4C)c(C(C)C)c3c2)C1 (stereo not drawn) [Example 341]
1	4140	3.4	Cc1c(-c2[nH]c3ccc(C4CN(C(=O)CN(C)C)CCO4)cc3c2C(C)C)cn2ncnc2c1C (stereo not drawn) [Example 329]
1	3330	3.4	Cc1c(-c2[nH]c3ccc(C4CN(C(=O)CN(C)C)CCO4)cc3c2C(C)C)cn2ncnc2c1C (stereo not drawn) [Example 330]
1	3620	4.6	Cc1cc(-c2[nH]c3ccc(C4CN(C(=O)CN(C)C)CCO4)cc3c2C(C)C)cn2ncnc12 (stereo not drawn) [Example 331]
1	3280	7.1	CNCC(=O)N1CCOC(c2ccc3[nH]c(-c4cc(C)c5ncnn5c4)c(C(C)C)c3c2)C1 (stereo not drawn) [Example 337, 1-(2-(3-isopropyl-2-(8-methyl-[1,2,4]triazolo[1,5-a]pyridin-6-yl)-1H-indol-5-yl)morpholino)-2-(methylamino)ethanone]
1	863	6	CNCC(=O)N1CCOC(c2ccc3[nH]c(-c4cc(OC)c5ncnn5c4)c(C(C)C)c3c2)C1 (stereo not drawn) [Example 339]
0.85	5490	8.2	Cc1cc(-c2[nH]c3ccc(C4CN(C(=O)CN(C)C)CCO4)cc3c2C(C)C)cn2ncnc12 (stereo not drawn) [Example 328, 2-(dimethylamino)-1-(2-(3-isopropyl-2-(8-methyl-[1,2,4]triazolo[1,5-a]pyridin-6-yl)-1H-indol-5-yl)morpholino)ethanone]
0.83	2750	3.1	COc1cc(-c2[nH]c3ccc(C4CN(C(=O)CN(C)C)CCO4)cc3c2C(C)C)cn2ncnc12 (stereo not drawn) [Example 334]
0.78	2050	7.1	CNCC(=O)N1CCOC(c2ccc3[nH]c(-c4cc(C)c5ncnn5c4)c(C(C)C)c3c2)C1 (stereo not drawn) [Example 338]
0.65	2800	6.2	COc1cc(-c2[nH]c3ccc(C4CN(C(=O)CN(C)C)CCO4)cc3c2C(C)C)cn2ncnc12 (stereo not drawn) [Example 332]
